Experimental data reported in patent US10857082B2, “Diarylalkanes as potent inhibitors of binuclear enzymes” (Unigen, Inc., priority 2004, dated 2020).
“Also recorded” adds a separate entry of the source. Like-named read-outs stand apart in the source and are kept apart here. Blank lines part the entries; values can stand above or below the compound they belong to.

Columns and labels:
[1] = target: mushroom tyrosinase (Agaricus bisporus, UniProt C7FF04); assay: Tyrosinase inhibition assay (L-DOPA to dopachrome, absorbance at 450 nm); assay type: biochemical
Description: (§1) A tyrosinase inhibition assay was carried out using the method reported by Jones et al. (2002) Pigment. Cell Res. 15:335. Using this method, the conversion of L-Dopa, a substrate of tyrosinase, into dopachrome is followed by monitoring absorption at 450 nm. Tyrosinase was prepared in 50 mM potassium phosphate buffer, pH 6.8 (assay buffer) at 2000 U/ml and stored at −20° C. in 1 ml aliquots prior to use. For use in assays, stock enzyme solutions were thawed and diluted to 200 U/ml with assay buffer. A 2 mM working solution of substrate, L-DOPA, was prepared in assay buffer for each assay. Samples were dissolved in 10% DMSO (0.5 ml) and diluted to 5 ml with assay buffer. The reaction mixture consisted of 0.050 ml 2 mM L-DOPA, 0.050 ml 200 U/ml mushroom tyrosinase and 0.050 ml inhibitor. Reaction volume was adjusted to 200 μl with assay buffer. Assays were performed in 96 well Falcon 3097 flat-bottom microtiter plates (Beckton Dickinson, N.J.). Appearance of dopachrome was measured with a WALLAC 1420 Multilable Counter (Turku, Finland). Average velocity was determined from linear enzyme rate as measured by change in absorbance (ΔA450) at 450 nm per minute. Percent inhibition of tyrosinase by test samples was determined by comparison of absorbance of samples versus control using formula (I): (Negative control absorption-sample absorption)/Negative control absorption×100 (1)
Inhibition of tyrosinase by synthetic diarylalkanes was measured using the method described in Example 2. The IC50 value of each sample was calculated using kinetics software to verify that the reaction was linear at a specified time and concentration.

[2] = system: tyrosinase; assay: Enzyme inhibition kinetics with L-DOPA as substrate; assay type: biochemical, mushroom
Description: as §1, with “A 2 mM working solution of substrate, L-DOPA, was prepared in assay buffer for each assay.” left out, “The reaction mixture consisted of 0.050 ml 2 mM L-DOPA, 0.050 ml 200 U/ml mushroom tyrosinase and 0.050 ml inhibitor.” left out

[3] = target: DOPA oxidase activity; details: cited from earlier work
[4] = system: B16 F1 cells; assay: Inhibition of melanin production in B16 F1 cells without β-MSH induction (endogenous); assay type: cell-based, mouse; details: for Inhibition of melanin production relative to kojic acid, in words: B-16 cell line model, with and without β-MSH induction
Text: (§2) Color development was visually monitored each morning.

[5] = system: B16 F1 cells; assay: Inhibition of melanin production in B16 F1 cells with β-MSH induction; assay type: cell-based, mouse
Text: as §2

[6] = system: B16 F1 cells; assay: Cell toxicity assay, lactate dehydrogenase (LDH)
Description: The inhibition of melanin production was evaluated using two different assays. In the first assay, the inhibition of melanin production was evaluated without induction by β-MSH; whereas in the second assay the inhibition of melanin production was measured with β-MSH induction in cell culture medium. Briefly, B16 F1 cells (ATCC #CRL-622) were grown to confluency and then seeded at 40,000 cells per well. The cells were allowed to attach overnight at 37° C. in a humidified environment containing 5% CO2. On day 2, inhibitors were added to the cells at concentrations ranging from 0-1000 μM in triplicate and allowed to incubate for four days. The amount of β-MSH required to induce melanin formation was determined by the addition of hormone at concentrations ranging from 0-1000 nM in ten-fold increments. Once the proper β-MSH concentration was determined, cells were seeded as above, allowed to attach overnight and then co-incubated with tyrosinase inhibitors at concentrations ranging from 0-1000 μM. Color development was visually monitored each morning. After the development of color, 200 μl of cell supernatant was removed from each well and absorbance was measured at 450 nm. The resulting readings were used to determine the IC50 for melanin formation in the cell assay with and without β-MSH induction. For an initial comparison of cell toxicity, the 250 μM treated wells were used to perform a lactate dehydrogenase assay (LDH). LDH is a metabolic enzyme that leaks out of damaged or dead cells. The enzyme converts a chromophore in the presence of NAD^+ to yield a color change that can be monitored spectrophotometrically.
The compound treated wells were used to perform a lactate dehydrogenase assay (LDH). LDH is a metabolic enzyme that leaks out of damaged or dead cells. The enzyme converts a chromophore in the presence of NAD^+ to yield a color change that can be monitored spectrophotometrically. The cytotoxicity was examined at a concentration of 250 μM. […] It should be noted however, that cytotoxicity at only one concentration (250 μM) was tested.

[7] = target: human tyrosinase hydroxylase activity (Homo sapiens (Human), UniProt P14679); details: cited from earlier work
[8] = system: B16 F1 murine melanoma cells; details: read-out: IC50, melanin biosynthesis; cited from earlier work
[9] = Table 2, synthetic diarylalkanes and/or diarylalkanols, read-out: Tyrosinase Inhibition (IC50)
[10] = read-out: IC50 for inhibition of tyrosinase
[11] = Mus musculus, B16 F1 cells, without β-MSH induction, read-out: IC50 for melanin formation, endogenous experiment
[12] = Table 3, mouse B16 F1 cells, no β-MSH, read-out: Endogenous Melanin Inhibition IC50
[13] = Mus musculus, B16 F1 cells, with β-MSH induction, read-out: IC50 for melanin formation, induced experiment
[14] = Table 3, mouse B16 F1 cells, β-MSH induction, read-out: MSH Induced Melanin Inhibition IC50

Chain of mushroom tyrosinase (C7FF04 1-392 limits assumed): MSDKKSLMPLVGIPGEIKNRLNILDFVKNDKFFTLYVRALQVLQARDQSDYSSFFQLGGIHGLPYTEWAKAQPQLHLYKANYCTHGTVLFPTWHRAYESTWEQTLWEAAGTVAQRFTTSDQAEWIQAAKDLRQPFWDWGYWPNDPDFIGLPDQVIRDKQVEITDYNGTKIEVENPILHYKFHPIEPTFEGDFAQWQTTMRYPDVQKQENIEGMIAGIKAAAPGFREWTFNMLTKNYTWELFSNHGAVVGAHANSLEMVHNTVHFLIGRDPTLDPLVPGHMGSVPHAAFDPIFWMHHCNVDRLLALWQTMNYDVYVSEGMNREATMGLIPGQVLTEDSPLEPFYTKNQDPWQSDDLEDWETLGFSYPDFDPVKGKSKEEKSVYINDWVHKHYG
Chain of human tyrosinase hydroxylase activity (P14679 19-529): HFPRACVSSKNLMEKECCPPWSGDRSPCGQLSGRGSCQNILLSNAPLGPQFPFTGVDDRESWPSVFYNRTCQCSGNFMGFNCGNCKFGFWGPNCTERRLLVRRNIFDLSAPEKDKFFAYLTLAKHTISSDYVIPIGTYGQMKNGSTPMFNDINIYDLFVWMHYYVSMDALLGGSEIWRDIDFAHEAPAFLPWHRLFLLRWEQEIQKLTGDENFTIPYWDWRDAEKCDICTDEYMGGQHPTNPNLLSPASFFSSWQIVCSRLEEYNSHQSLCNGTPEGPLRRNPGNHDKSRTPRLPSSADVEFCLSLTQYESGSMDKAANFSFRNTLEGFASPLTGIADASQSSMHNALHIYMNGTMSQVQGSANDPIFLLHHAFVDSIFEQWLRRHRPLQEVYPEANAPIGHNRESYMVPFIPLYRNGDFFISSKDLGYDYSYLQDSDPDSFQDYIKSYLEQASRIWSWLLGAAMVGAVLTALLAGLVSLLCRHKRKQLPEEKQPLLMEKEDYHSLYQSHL

Compound: COc1cc(CCC(O)c2ccc(O)cc2O)ccc1O (centres unmarked) [1-(2,4-dihydroxyphenyl)-3-(3′-methoxy-4′-hydroxyphenyl)-1-propanol]
- Tyrosinase inhibitory activity in words [1]: quite strong tyrosinase inhibitory activity

- IC50 [1, 9]: 72 µM
- IC50 [1, 10]: 72 µM
Compound: COc1ccc(C(O)CCc2ccc3c(c2)OCCCCO3)c(O)c1 (centres unmarked) [1-(2-hydroxy-4-methoxyphenyl)-3-(2′,3′,4′,5′-tetrahydro-benzo(b)dioxoin-8′-yl)-1-propanol]

- IC50 [1, 9]: 225 µM
- IC50 [1, 10]: 225 µM
Compound: COc1ccc(C(O)CCc2ncc(Cl)n2C)c(O)c1 (centres unmarked) [3-(5′-chloro-1′-methyl-1′-hydro-imidazol-2′-yl)-1-(2-hydroxy-4-methoxyphenyl)-1-propanol]

- Time until tyrosinase activity was totally restored following incubation [2]: 1 h
- IC50 [4, 11]: 170 µM
- IC50 [4, 12]: 170 µM
- IC50 [5, 13]: 67 µM
- IC50 [5, 14]: 67 µM
Compound: O=c1cc(CO)occ1O [Kojic acid, kojic acid, reference compound]
- IC50 [3]: 410 µM
- Cell Toxicity (LDH) ([6]; 250 μM treated wells): 0.260

- IC50 [4, 12]: 108 µM
- IC50 [5, 14]: 105 µM
Compound: COc1ccc(O)c(CCCc2ccc(O)cc2OC)c1 [UP288, 1-(2-methoxy-4-hydroxyphenyl)-3-(2′-hydroxy-5′-methoxyphenyl)-propane]
- Inhibition of melanin production relative to kojic acid, in words [4]: comparable to kojic acid; also recorded: at least as good, if not better inhibitors than kojic acid
- Cell Toxicity (LDH) ([6]; mouse, 4 days, 250 μM): 0.315
- Tyrosinase inhibitory activity in words [1]: as potent a tyrosinase inhibitor as kojic acid; also recorded: strong tyrosinase inhibition activity

- Resumption of tyrosinase activity after incubation with inhibitor [2]: not resumed for several days
- Type of tyrosinase inhibition ([2]; inhibitor 0, 261, 522, 1044 nM, L-DOPA 0.75, 1.25, 2.5 mM): powerful competitive inhibitor
- IC50 [4, 11]: 28 µM
- IC50 [4, 12]: 28 µM
- IC50 [5, 13]: 40 µM
- IC50 [5, 14]: 40 µM
- Tyrosinase inhibitory activity in words [1]: strong tyrosinase inhibitory activity
Compound: COc1ccc(CCCc2ccc(O)cc2O)c(OC)c1C [UP302a, 1-(3-methyl-2,4-dimethoxyphenyl)-3-(2′,4′-dihydroxyphenyl)-propane]
- Inhibition of melanin production relative to kojic acid, in words [4]: at least as good, if not better inhibitors than kojic acid
- Inhibition of MSH induced melanin production relative to kojic acid ([5]; B-16 cell line): significantly greater than kojic acid
- Cell Toxicity (LDH) ([6]; mouse, 4 days, 250 μM): 0.265

Compound: CC(=O)Cc1cc(=O)c2c(C)cc(O)c([C@@H]3O[C@H](CO)[C@@H](O)[C@H](O)[C@H]3O)c2o1 [aloesin]
- IC50 [7]: 920 µM
- IC50 [3]: 700 µM
- IC50 [8]: 167 µM

Compound: OC[C@H]1O[C@@H](Oc2ccc(O)cc2)[C@H](O)[C@@H](O)[C@@H]1O [arbutin]
- IC50 [3]: 3020 µM

- IC50 [1, 9]: 30 µM
Compound: COc1ccc(O)c(C(O)CCc2ccc(OC)c(OC)c2)c1 (stereo not drawn) [l-(2-hydroxy-5-methoxyphenyl)-3-(3′,4′-dimethoxyphenyl)-1-propanol]
